Measured values taken from publication PMC6406907, “A H2AX–CARP-1 Interaction Regulates Apoptosis Signaling Following DNA Damage” (Cancers, 2019).
No end group written: not given here. HA = not defined here

How the values were obtained:
[1] = tested on: MDA-MB-468 cells; experiment: MTT cell viability/growth inhibition, MDA-MB-468; assay type: cell-based, human; conditions: for cell viability: 10 μM, MDA-MB-468, MTT, mean of three independent experiments; for growth inhibition of EGFP-CARP-1 / EGFP-H2AX (1–35)-expressing cells: MDA-MB-468 sublines vs EGFP-expressing counterparts
Description: Routine maintenance and culture of MDA-MB-468 (lacking estrogen receptor; ER and having mutant p53) human triple-negative breast cancer (TNBC) cells, human cervical cancer HeLa, human kidney cancer UOK 262, non-small-cell lung cancer H1975, and HCC827 cells was carried out essentially as described previously. Generation and characterization of MDA-MB-468 cells expressing reduced CARP-1 was described previously. The stable sublines were generated by transfecting the MDA-MB-468 and Hela cells with the pcDNA3 vector, pcDNA3-CARP-1 wild-type (WT)-myc-His clone 6.1.2, pcDNA3-CARP-1(Δ600–650)-myc-His, pcDNA3-EGFP, pcDNA3-EGFP-H2AX (1–35), or pcDNA3-EGFP-CARP-1 (636–650) plasmids, followed by selection in the presence of 800 μg/mL neomycin using described methods. The cell lysates from wild-type, untransfected cells, neomycin-resistant pools, or individual sublines were then subjected to MTT-based viability, confocal, immunoprecipitation (IP), and Western blot (WB) analyses as below.
The cell growth inhibition was assessed using an MTT assay following the established protocols described by us previously.
Here, we utilized human TNBC MDA-MB-468 and human cervical cancer HeLa cells to conduct an MTT-based dose-response analysis using Adriamycin and CFM compounds. […] Since Adriamycin, CFM-4, and CFM-4.16 have molecular masses of 543.3, 404.9, and 440.3, respectively, we chose to use an equimolar dose of each compound in the MTT assays. […] Prior reports established that phosphorylation of H2AX at serine 139 (γ-H2AX) is involved in DNA damage repair and apoptotic signaling by ATM/ATR and JNKs, respectively. Next, the MDA-MB-468, HeLa, and the kidney cancer UOK 262 cells were treated with a 10 μM dose of the CFM-4.16 or Adriamycin for various time periods. The cell lysates from the control, untreated, and treated cells were analyzed by WB for expression of CARP-1, phospho-JNK1/2, phospho-H2AX, and poly ADP ribose polymerase (PARP) proteins. […] The H2AX activation is also indicative of DNA damage and involves pro-apoptotic JNKs. Our data in Figure 1C and Figure S1B,C (Supplementary Materials) also show activation of JNKs; however, a robust JNK activation is co-incident with H2AX phosphorylation following treatments with Adriamycin or CFM-4.16.
Figure 7 Disruption of H2AX interaction with CARP-1 results in enhanced viabilities of CFM-4-, CFM-4.16-, or Adriamycin-treated cells in part due to reduced apoptosis. (A,C,D) Indicated MDA-MB-468 cell lines were treated with DMSO (Control), or with the noted dose and time of Adriamycin, CFM-4, or CFM-4.16 compounds. Determination of viable/live cells was carried out by MTT assay as described in Section 2. (B,E,F) Cell lysates derived from vehicle DMSO (Control), or CFM-4-, CFM-4.16-, or Adriamycin-treated cells were added to the wells that had immobilized fluorogenic substrates of noted caspases. The fluorescence released from the activated caspase-dependent cleavage of respective substrate was detected by a plate reader at the excitation and emission wavelengths of 380 nm and 460 nm, respectively, as detailed in Section 2. The columns in bar charts in panels A, C, D and B, […] represent means of three and two independent experiments, respectively; bars, SE. For panels C and D, * p < 0.05, **p < 0.01 and *** p ≤ 0.001 relative to the respective EGFP vector subline. For panels E and F, *** p ≤ 0.05 relative to the respective EGFP vector subline.
Figure 8 Ectopic expression of TAT-CARP-1 (636–650) peptide results in enhanced viabilities of Adriamycin-treated cells. MDA-MB-468 (A) or HeLa (B) cells were pre-incubated with 300 μg/mL indicated peptides for 72 h, followed by treatments with the noted dose and time of Adriamycin. Determination of viable/live cells was carried out using an MTT assay as described in Section 2. […]

[2] = tested on: caspases-3, -8, -9, and -2; experiment: Caspase activity, ApoAlert Caspase profiling plate, MDA-MB-468 sublines; assay type: cell-based, human; conditions: for caspase-3 activation in EGFP-peptide-expressing cells: MDA-MB-468 sublines vs EGFP vector subline, Figure 7E,F
From the text: Our next objective was to analyze the biological significance of the CARP-1–H2AX interaction in cells. For this purpose, we utilized MDA-MB-468 and HeLa cell lines that stably express myc-His-tagged wild-type CARP-1 or CARP-1 (Δ600–650)-myc-His proteins as detailed in Figure S4 (Supplementary Materials). These sublines were then either untreated (Control, DMSO), or treated with Adriamycin or CFM-4 compound. […] Next, we measured activation of caspases as an apoptosis readout in cells expressing myc-His-tagged wild-type CARP-1 or CARP-1 (Δ600–650) proteins that were either untreated or treated with Adriamycin or CFM compounds as detailed in Section 2. We utilized a lower, 4–5 μM dose of Adriamycin or CFM compounds because a 10 μM Adriamycin dose caused interference in signal output/readout in this particular assay, likely due to background fluorescence that is emitted by higher dose of Adriamycin. Although Adriamycin has a maximum excitation and emission wavelength of 470 and 560 nm, respectively, we found significant fluorescence emission in cells treated with 10 μM Adriamycin at a 380-nm excitation wavelength. Moreover, since caspase activation precedes apoptotic cell death, we utilized a lower dose of Adriamycin to permit a robust measurement of optimal caspase activation in cells undergoing moderate apoptosis with lower/minimal interference by Adriamycin-induced fluorescence signals. […] MDA-MB-468 or HeLa cells that express EGFP or EGFP-H2AX (1–35) were separately treated with Adriamycin, and presence of CARP-1 and γH2AX was determined by immuno-cytochemical staining followed by photography by a confocal microscope as described in Section 2. […]
Figure 7 Disruption of H2AX interaction with CARP-1 results in enhanced viabilities of CFM-4-, CFM-4.16-, or Adriamycin-treated cells in part due to reduced apoptosis. […] The fluorescence released from the activated caspase-dependent cleavage of respective substrate was detected by a plate reader at the excitation and emission wavelengths of 380 nm and 460 nm, respectively, as detailed in Section 2. […]

Compound | cell viability [1] | growth inhibition of EGFP-CARP-1 / EGFP-H2AX (1–35)-expressing cells ([1]; MTT, mean of three experiments) | caspase-3 activation in EGFP-peptide-expressing cells [2] | also measured
COc1cccc2c1C(=O)c1c(O)c3c(c(O)c1C2=O)C[C@@](O)(C(=O)CO)C[C@@H]3O[C@H]1C[C@H](N)[C@H](O)[C@H](C)O1 [Adriamycin, doxorubicin, reference compound] | inhibited viabilities of both the cell lines in a time-dependent manner | resistant to inhibition by CFM-4.16 or ADR |  | cell-growth inhibition ([1]; 10 μM dose, MDA-MB-468, MTT dose-response, Figure S1A): robust cell-growth inhibition; growth inhibition of CARP-1 (Δ600–650)-expressing cells ([1]; MDA-MB-468 CARP-1 (Δ600–650) vs WT CARP-1-expressing counterparts, MTT, mean of three experiments): resistant to inhibition by CFM-4 or ADR; caspase activation in CARP-1 (Δ600–650) cells ([2]; 4–5 μM, CARP-1 (Δ600–650) vs wild-type CARP-1-expressing cells, mean of two experiments, 380/460 nm): overall reduction in activation of caspases-3, -8, -9, and -2
His-TAT-HA-CARP-1 (636–650): His-TAT-HA-tagged CARP-1 (636–650) peptide, >95% purity, commercially synthesized ({His-TAT-HA}-PKTMKVNDLRKELES; reading uncertain; UniProt Q8IX12 636-650, looked up, fragment) |  |  |  | viability of Adriamycin-treated cells ([1]; MDA-MB-468 pre-incubated with 300 μg/mL peptide, 72 h, then Adriamycin, vs EGFP, MTT, mean of three experiments): moderate, statistically significant increase in viabilities; abrogation of Adriamycin-induced growth inhibition ([1]; cancer cells, abstract): moderate, statistically significant abrogation of Adriamycin-induced growth inhibition
EGFP-CARP-1 (636–650): EGFP-tagged fusion protein stably expressed in MDA-MB-468 and HeLa sublines (PKTMKVNDLRKELES; also: EGFP fusion kept, end not given here) |  | resistant to inhibition by CFM-4.16 or ADR | overall reduction in activation of caspase-3 | 
O=C1N(Cc2ccccc2Cl)c2ccccc2C12NN=C(c1cccc(Cl)c1)S2 (stereo not shown) [CFM-4.16] | inhibited viabilities of both the cell lines in a time-dependent manner | resistant to inhibition by CFM-4.16 or ADR |  | 
EGFP-H2AX (1–35): EGFP-tagged fusion protein stably expressed in MDA-MB-468 and HeLa sublines (MSGRGKTGGKARAKAKSRSSRAGLQFPVGRVHRLL; also: EGFP fusion, end not given here; UniProt P16104 1-35, looked up, fragment) |  | resistant to inhibition by CFM-4.16 or ADR | overall reduction in activation of caspase-3 | 
